Assay results reported in ChEMBL document CHEMBL3045226, “Synthesis and anti-tubercular evaluation of some novel pyrazolo[3,4-d]pyrimidine derivatives” (2012).

Tests used:
[1] = system: Mycobacterium tuberculosis; experiment: Antimicrobial activity against Mycobacterium tuberculosis H37Rv at < 6.25 ug/ml; type: functional
[2] = system: Mycobacterium tuberculosis; experiment: Antimicrobial activity against Mycobacterium tuberculosis H37Rv; type: functional

Row | Structure (SMILES) | inhibition (INH) [1] [%] | MIC [2] [µg/mL]
1 | CC1=NN(c2ccc3c(c2)Nc2ccccc2S3)C2N=C(S)NC(c3ccc(O)cc3)C12 (stereo unspecified) | 68 | > 6.25
2 | CC1=NN(c2ccc3c(c2)Nc2ccccc2S3)C2N=C(S)NC(c3ccccc3Cl)C12 (stereo unspecified) | 91 | < 6.25
3 | CC1=NN(c2ccc3c(c2)Nc2ccccc2S3)C2N=C(S)NC(c3ccc(Cl)cc3)C12 (stereo unspecified) | 74 | > 6.25
4 | CC1=NN(c2ccc3c(c2)Nc2ccccc2S3)C2N=C(S)NC(c3ccccc3[N+](=O)[O-])C12 (stereo unspecified) | 96 | < 6.25
5 | CC1=NN(c2ccc3c(c2)Nc2ccccc2S3)C2N=C(S)NC(c3ccc([N+](=O)[O-])cc3)C12 (stereo unspecified) | 54 | > 6.25
6 | COc1ccc(C2NC(S)=NC3C2C(C)=NN3c2ccc3c(c2)Nc2ccccc2S3)cc1 (stereo unspecified) | 63 | > 6.25
7 | CC1=NN(c2ccc3c(c2)Nc2ccccc2S3)C2N=C(S)NC(c3ccccc3)C12 (stereo unspecified) | 75 | > 6.25
8 | CC1=NN(c2ccc3c(c2)Nc2ccccc2S3)C2N=C(S)NC(c3ccccc3O)C12 (stereo unspecified) | 93 | < 6.25
